Laboratory results from patent publication US20080138850A1, “Skin Model” (SYMRISE GmbH & Co. KG, priority 2006, published 2008).

Legend:
Type in all cases: cell-based
pig skin samples = assay: Skin pigmentation (melanin, Fontana-Masson staining) in pig skin organ culture; conditions: Pietrain dorsal pig skin, 1% w/v topical, re-applied daily
Description: For this experiment, full thickness pig skin has been excised from dorsal part of a pig with 30±5 follicles/cm^2 (age: 8 weeks; weight: 24 kg). The skin samples have been cut under sterile condition in smaller pieces (surface: 4×4; thickness: 3 mm) and placed in a 6 wells plate (two samples per well) over a sterilized cotton immerse in 5 ml of culture medium, incubated at 37° C., 5% CO2, 100% humidity, as described above. Culture medium has been renewed every other day.
Thus, 10 μl of beta arbutin (1% w/v in culture medium) per sample has been added topically and re-applied daily. As negative control, culture medium has been applied topically by following the same experimental procedures as for beta-arbutin. Six pig skin samples have been used for each treatment (i.e. beta arbutin and culture medium).
The pig skin samples were incubated for either 2 or 6 days respectively.
Following organ culture procedure, skin samples have been embedded in cryomedium by using liquid nitrogen. […]
The amount of melanin present in each slide has been evaluated by measuring the areas covered by the black spots, by using the software ImageJ (National Institute of Health, US). […]
The data from all samples of the same experimental group have been pooled and the means ±SEM calculated. The statistical significance (P-value) was been determined by Mann-Whitney U test for nonparametric samples. […]

[1] = test system: full thickness human skin; assay: Skin pigmentation in full thickness human skin organ culture; conditions: beta arbutin 1% vs vehicle, day 6 of organ culture
From the text: FIG. 2(A) depicts human skin treated with beta arbutin 1% vs negative control (“vehicle”) at day 6 of organ culture.
Beta arbutin (hydroquinone glucoside), a recognized inhibitor of tyrosinase, has been selected as positive control for skin lightening.

[2] = test system: hair follicle matrix cells in pig skin organ culture; assay: Hair follicle matrix cell proliferation (Ki67/DAPI double staining) in pig skin organ culture; conditions: 25 ng/ml in culture medium
Description: For this experiment, full thickness skin samples had been excised from dorsal part of a pig with 30±5 follicles/cm^2 (age: 8 weeks; weight: 22 kg).
As a consequence, changes in the proliferation rate of hair follicles matrix cells have been investigated in pig skin organ culture following incubation with recognized modulators of hair growth.
Two different experimental procedures have been investigated:
I. In the first experiment, the pig skin samples had been incubated with the potential modulators from day 0 to day 6.
II. In the second experiment, the skin had been kept in culture until day 14. Then, the skin has been incubated with the potential modulators up day 21.
Following the organ culture procedure, skin samples had been embedded in cryomedium by using liquid nitrogen. Embedded samples had been cut in thin slides (thickness: 7 μm) and were then immunolabelled by performing Ki67/DAPI double staining to detect proliferative cells localized on the bulb region. In particular, while Ki67 labels proliferating cells, DAPI stains all cell nuclei. Quantitative analysis has been performed by using a custom modified version of the software ImageJ (National Institute of Health, US). The data from all samples of the same experimental group have been pooled and the means ±SEM calculated. The statistical significance (P-value) has been determined by Mann-Whitney U test for nonparametric samples. […]

OC[C@H]1O[C@@H](Oc2ccc(O)cc2)[C@H](O)[C@@H](O)[C@@H]1O [beta arbutin, hydroquinone glucoside]
decrease of pigmentation in comparison to the negative control (pig skin samples; after 2 days): 52.4% | decrease of pigmentation in comparison to the negative control (pig skin samples; after 6 days): 44.2% | inhibition of skin pigmentation [1]: 31%

B1: transforming growth factor beta 2 (protein, UniProt P61812 303-414, looked up)
Transforming growth factor …: ALDAAYCFRNVQDNCCLRPLYIDFKRDLGWKWIHEPKGYNANFCAGACPYLWSSDTQHSRVLSLYNTINPEASASPCCVSQDLEPLTILYYIGKTPKIEQLSNMIVKSCKCS
inhibition of hair matrix cell proliferation versus untreated control ([2]; incubated day 0 to day 6, read at day 6): 24.8% | inhibition of hair matrix cell proliferation versus untreated control ([2]; incubated day 14 to day 21, read at day 21): 36.1%
